Laboratory results reported in patent US11214803B2, “Modulators of YAP1 expression” (Ionis Pharmaceuticals, Inc., priority 2019, dated 2022).
Strand notation (5' to 3'): a small letter for the sugar, then the base; units joined by * are phosphorothioate-linked, units joined directly phosphodiester-linked; [ ] holds rarer units or linkages, { } end groups; capitals alone tell only the bases. k = constrained ethyl (cEt); [5mC] = 5-methylcytosine; d = 2'-deoxy (DNA)

tested on: Yap1 mRNA; assay: Antisense inhibition of human Yap1 in A-431 cells by cEt gapmers, single dose (Example 4, RTS4814); assay type: cell-based; conditions: Table 14; A-431 cells, 5,000 cells per well, free uptake, 2,000 nM, approximately 48 hours; RTS4814; normalized to RIBOGREEN; Yap1 mRNA relative to untreated control; * = targets amplicon region of primer probe set
Method in brief: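 A-431 cells took up 3-10-3 cEt gapmers (16-mer, full phosphorothioate, 5-methylcytosines) by free uptake at 2,000 nM for about 48 h. Yap1 mRNA was quantified by qRT-PCR, normalized to total RNA (RIBOGREEN), and reported as % of untreated control.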

| Substance | YAP1 (% UTC) |
| --- | --- |
| 1076384 (kT*kA*kT*dA*dA*dG*dG*dG*dA*d[5mC]*dT*dT*dG*k[5mC]*kT*kG; antisense) [Compound 1076384] | 25 |
| 1076416 (kA*k[5mC]*k[5mC]*dG*dA*dA*dA*dT*dG*dA*dT*dA*d[5mC]*kT*kG*kA; antisense) [Compound 1076416] | 8 |
| 1076448 (k[5mC]*kT*kT*dA*dT*dA*dA*dT*dG*d[5mC]*dA*dA*dT*k[5mC]*k[5mC]*kT; antisense) [Compound 1076448] | 2 |
| 1076480 (antisense kG*kT*kA*dA*dA*dT*dA*dT*d[5mC]*d[5mC]*dA*dT*dT*kA*k[5mC]*k[5mC]) [Compound 1076480] | 72 |
| 1076512 (antisense k[5mC]*kA*kT*dA*dA*dA*d[5mC]*d[5mC]*dA*dT*dT*dA*dA*kG*kT*kG) [Compound 1076512] | 65 |
| 1076544 (antisense kG*kA*k[5mC]*d[5mC]*dA*dA*d[5mC]*d[5mC]*dT*d[5mC]*d[5mC]*d[5mC]*d[5mC]*kT*kT*kG) [Compound 1076544] | 89 |

same assay, conditions: Table 15; A-431 cells, 5,000 cells per well, free uptake, 2,000 nM, approximately 48 hours; RTS4814; normalized to RIBOGREEN; Yap1 mRNA relative to untreated control; * = targets amplicon region of primer probe set

| Substance | YAP1 (% UTC) |
| --- | --- |
| 1076385 (kA*kT*kA*dT*dA*dA*dG*dG*dG*dA*d[5mC]*dT*dT*kG*k[5mC]*kT; antisense) [Compound 1076385] | 32 |
| 1076417 (k[5mC]*kT*kT*dT*dA*d[5mC]*dA*d[5mC]*d[5mC]*dG*dA*dA*dA*kT*kG*kA; antisense) [Compound 1076417] | 42 |
| 1076449 (k[5mC]*k[5mC]*kT*dT*dA*dT*dA*dA*dT*dG*d[5mC]*dA*dA*kT*k[5mC]*k[5mC]; antisense) [Compound 1076449] | 2 |
| 1076513 (antisense k[5mC]*kA*kT*dT*dA*dA*d[5mC]*dA*d[5mC]*dT*d[5mC]*d[5mC]*dT*k[5mC]*kA*kG) [Compound 1076513] | 36 |
| 1076545 (antisense kA*kA*k[5mC]*d[5mC]*dA*dA*d[5mC]*d[5mC]*dT*dT*d[5mC]*d[5mC]*d[5mC]*kT*kA*k[5mC]) [Compound 1076545] | 68 |

same assay, conditions: Table 16; A-431 cells, 5,000 cells per well, free uptake, 2,000 nM, approximately 48 hours; RTS4814; normalized to RIBOGREEN; Yap1 mRNA relative to untreated control cells

| Substance | YAP1 (% UTC) |
| --- | --- |
| 1076386 (kA*kG*kT*dT*dA*dT*dA*dA*d[5mC]*dA*dG*dT*dG*kT*kA*kA; antisense) [Compound 1076386] | 7 |
| 1076418 (kT*kA*kT*dA*dA*dT*dA*dA*d[5mC]*d[5mC]*d[5mC]*dA*dT*kT*kG*kT; antisense) [Compound 1076418] | 63 |
| 1076450 (k[5mC]*kT*kT*dG*dA*dA*dT*dA*dG*d[5mC]*dT*dA*dT*kG*kT*kG; antisense) [Compound 1076450] | 13 |
| 1076482 (antisense k[5mC]*kT*kT*dT*dA*dG*dA*d[5mC]*dT*dA*dA*dG*dT*kA*kA*kG) [Compound 1076482] | 107 |
| 1076514 (antisense k[5mC]*k[5mC]*kT*dT*dA*dG*dG*dA*dG*dA*dT*dG*d[5mC]*kA*k[5mC]*k[5mC]) [Compound 1076514] | 18 |
| 1076546 (antisense k[5mC]*k[5mC]*k[5mC]*d[5mC]*dA*dA*d[5mC]*d[5mC]*dT*dG*dA*dG*dG*kA*kG*k[5mC]) [Compound 1076546] | 94 |

same assay, conditions: Table 17; A-431 cells, 5,000 cells per well, free uptake, 2,000 nM, approximately 48 hours; RTS4814; normalized to RIBOGREEN; Yap1 mRNA relative to untreated control cells

| Substance | YAP1 (% UTC) |
| --- | --- |
| 1076355 (k[5mC]*kT*kA*d[5mC]*dA*dA*dA*dA*dG*dA*dG*d[5mC]*dT*kA*kT*kG; antisense) [Compound 1076355] | 92 |
| 1076387 (kT*kG*kA*d[5mC]*dA*dA*d[5mC]*dA*d[5mC]*dA*dG*dT*dT*kA*kT*kA; antisense) [Compound 1076387] | 13 |
| 1076419 (kA*kT*kA*dT*dA*dA*dT*dA*dA*d[5mC]*d[5mC]*d[5mC]*dA*kT*kT*kG; antisense) [Compound 1076419] | 47 |
| 1076451 (k[5mC]*k[5mC]*kT*dT*dA*dA*dG*dA*dA*d[5mC]*dA*dT*dG*kA*kG*kG; antisense) [Compound 1076451] | 77 |
| 1076483 (antisense kA*k[5mC]*kG*dG*dG*dA*dA*dA*dT*d[5mC]*dA*dT*dA*kT*kA*kG) [Compound 1076483] | 5 |
| 1076515 (antisense k[5mC]*kT*kG*d[5mC]*dA*dA*dG*dA*dA*dT*dA*d[5mC]*dT*kT*kT*kA) [Compound 1076515] | 30 |
| 1076547 (antisense kG*kA*k[5mC]*d[5mC]*dA*dA*d[5mC]*d[5mC]*dT*d[5mC]*d[5mC]*d[5mC]*dT*k[5mC]*kA*kG) [Compound 1076547] | 89 |

same assay, conditions: Yap1 mRNA remaining as percent of untreated control; 3-10-3 cEt gapmers; A-431 cells; Table 36

| Substance | YAP1 (% UTC) |
| --- | --- |
| 1076374 (antisense kA*kT*kA*dA*d[5mC]*dG*dG*dA*dT*dA*dT*dA*d[5mC]*kA*kA*kT) [compound 1076374] | 15 |
| 1076438 (kT*kA*kG*dG*dA*dA*dG*dA*dA*dT*dA*dG*d[5mC]*kA*kT*k[5mC]; antisense) [compound 1076438] | 13 |
| 1076470 (kG*kA*kT*dA*dA*dA*dG*dA*dG*dG*dT*dT*dA*kA*k[5mC]*kA; antisense) [compound 1076470] | 34 |
| 1076502 (k[5mC]*kA*kA*dA*dG*dT*dA*dA*dG*dT*dG*dA*dG*k[5mC]*k[5mC]*k[5mC]; antisense) [compound 1076502] | 17 |
| 1076566 (kA*kA*kT*dT*dA*d[5mC]*dA*dG*dT*dG*dT*d[5mC]*dT*k[5mC]*kA*k[5mC]; antisense) [compound 1076566] | 63 |

same assay, conditions: Yap1 mRNA remaining as percent of untreated control; 3-10-3 cEt gapmers; A-431 cells; Table 37

| Substance | YAP1 (% UTC) |
| --- | --- |
| 1076375 (antisense kT*kA*kT*dA*dA*d[5mC]*dG*dG*dA*dT*dA*dT*dA*k[5mC]*kA*kA) [compound 1076375] | 22 |
| 1076407 (antisense kG*kT*kA*dT*dT*dA*dT*dT*dT*dA*dA*dG*dA*k[5mC]*k[5mC]*kT) [compound 1076407] | 22 |
| 1076503 (kA*kA*kT*dT*dA*d[5mC]*d[5mC]*d[5mC]*d[5mC]*dT*dG*dT*dG*kA*kG*kG; antisense) [compound 1076503] | 77 |
| 1076535 (kA*kT*kT*dT*dT*dT*dA*dG*d[5mC]*dT*d[5mC]*dG*d[5mC]*kA*kA*kT; antisense) [compound 1076535] | 28 |
| 1076567 (kG*kA*kT*dT*dA*d[5mC]*dA*dG*dT*dG*dA*d[5mC]*dA*kT*kT*k[5mC]; antisense) [compound 1076567] | 10 |
